Laboratory results from patent EP1216701A1, “Process to increase the concentration of meiosis-activating sterols (MAS) in the cholesterol synthesis and the use of potent inhibitors in the process” (Schering Aktiengesellschaft, priority 2000, dated 2002).

How the values were obtained:
HepG2 cells [1] = assay: Accumulation of cholesterol precursors / C29-sterols (MAS) in HepG2 cells, GC/MS (SIM); assay type: cell-based, Human; details: HepG2 cells; for Increases in FF-MAS / Increases in T-MAS: 1 µM, refers to Table 1; for Dienol (m/z 486) / Enol T-MAS (m/z 484) / Trienol FF-MAS (m/z 482): ± SD; for suppression of the Δ24 reduction step (accumulation of desmosterol): absence of miconazole, 10 µM potent inhibitors or 1 µM tamoxifen for 12 h
Procedure: (§1) Human hepatoma HepG2 cells were cultured to confluency in 60-mm dishes in phenol-red-free Dulbecco's modified Eagle's medium (DMEM) containing Pen-Strep (100 µg/ml), glucose (10 mM), sodium bicarbonate (45 mM) and glutamine (4 mM) supplemented with 10% fetal calf serum as described previously (24). At the beginning of the experiment the medium was changed to serum-free DMEM supplemented with 10% lipid-free "controlled process serum replacement" (CPSR-1). Compounds were added from ethanolic stock solutions to produce final ethanol concentrations of 0.1-0.3% v/v. Controls received the same amount of ethanol. Aminotriazole was added in an aqueous solution. Slices of rat testis (25 µm; 25-50 mg wet weight) were incubated under the same conditions in a shaking water bath (37°C). For isotopomer spectral analysis (ISA) of lathosterol, 1-^13C-acetate was added in an aqueous solution to a final concentration of 1 mM.
(§2) Cells were washed three times with ice cold PBS (pH 7.4) (once with 2 mg/ml BSA and twice with PBS alone). Epicoprostanol (1 µg in 50 µl of hexane) was added as internal standard to each sample. Sterols were extracted in hexane/isopropanol (3:2 v/v; two times with 4 ml). After drying under nitrogen and alkaline hydrolysis (1 N NaOH in 80% ethanol, 1.5 h at 70°C), the sterols were extracted with cyclohexane (two times with 3 ml). After drying under nitrogen, sterols were converted to their trimethylsilyl (TMS) derivatives by adding 100 µl bis(trimethylsilyl)trifluoracetamide (Pierce)/n-decane (1:1; v/v) and heating for 1 h at 70°C in a conical glass tube. This solution (1-2 µl) was used for gas-chromatography/mass-spectrometry (GC/MS). Rat testes (0.05-0.15 g) were homogenized manually, and lipids were extracted in hexane/isopropanol (3:2 v/v; two times with 4 ml). The extracts were deproteinized with acetone (3 ml) and processed as described above. The observed sterol levels in testis were normalized to correspond to 0.1 g of tissue (wet weight).
Gas-chromatography was done in the splitless mode with temperature programming as follows: 150°C for 1 min, followed by 20°C/min up to 260°C and 10°C/min up to 280°C (hold for 15 min). Mass spectral data were collected either in the full-scan mode (m/z 50-550) or by selective ion monitoring (SIM). For SIM analyses the electron multiplier voltage was raised by 300 V after the elution of lathosterol to increase the sensitivity of detection for lanosterol, dihydrolanosterol, methylsterols, dimethylsterols and plant sterols. The internal standard epicoprostanol was monitored at m/z 370. […] Peak integration was performed manually, and sterols were quantified from SIM analyses against the internal standard. Unless stated otherwise, MAS amounts are given as a percentage of the control.

HepG2 cells [2] = assay: Isotopomer spectral analysis (ISA) of flux of 13C-acetate to lathosterol and cholesterol; assay type: cell-based, Human; details: 10 µM, 12 h, 1 mM 1-13C-acetate
Procedure: as §1
(§3) Analyses were performed on a Hewlett-Packard GC/MS system (5890 series II GC interfaced to a 5971 mass selective detector) equipped with a DB-XLB column (30 m x 0.25 mm i.d. x 0.25 µm film; J&W). Gas-chromatography was done in the splitless mode with temperature programming as follows: 150°C for 1 min, followed by 20°C/min up to 260°C and 10°C/min up to 280°C (hold for 15 min). Mass spectral data were collected either in the full-scan mode (m/z 50-550) or by selective ion monitoring (SIM). For SIM analyses the electron multiplier voltage was raised by 300 V after the elution of lathosterol to increase the sensitivity of detection for lanosterol, dihydrolanosterol, methylsterols, dimethylsterols and plant sterols. The internal standard epicoprostanol was monitored at m/z 370. In unlabeled experiments, cholesterol precursors and plant sterols were monitored by the following ions: desmosterol (m/z 456; 441 and 351); Δ8-cholestenol (m/z 458); lathosterol (m/z 458); monounsaturated methylsterols (m/z 472); diunsaturated methylsterols (m/z 470); monounsaturated dimethylsterols (m/z 486); diunsaturated dimethylsterols (m/z 484); triunsaturated dimethylsterols (m/z 482); lanosterol (m/z 498 and 393) and dihydrolanosterol (m/z 500 and 395). Peak integration was performed manually, and sterols were quantified from SIM analyses against the internal standard. Unless stated otherwise, MAS amounts are given as a percentage of the control. When 1-^13C-acetate was used in the culture medium for ISA, up to 10 ions (M+0- M+10) were monitored for the TMS derivatives of lathosterol (m/z 458-468), T-MAS (m/z 484-494) and FF-MAS (m/z 482-492).
ISA was carried out as described previously (25) by incubating cells with 1-13C-acetate. The isotopomer distribution in sterols synthesized from 1-^13C-acetate provided the fractional synthesis rate g(t) of the product and the enrichment D of the labeled precursor pool. These parameters were calculated by nonlinear regression analysis as described previously (25,26). Because here we used the molecular ions containing the TMS group for the ISA calculations, the ISA program was modified to correct for the additional C, H and Si atoms from the derivatization reagent. Statistical differences were assessed by Student's t-test and considered significant for P<0.05.

Δ24-reductase = target: T1, Δ24-reductase (Homo sapiens, UniProt Q15392); assay: Δ24-reductase assay (conversion of lanosterol to dihydrolanosterol in the presence of miconazole); assay type: cell-based; details: HepG2 cells; conversion of lanosterol to dihydrolanosterol with added miconazole
T1 construct: endogenous in cells; host or cells: HepG2
T1 sequence (Q15392 23-516): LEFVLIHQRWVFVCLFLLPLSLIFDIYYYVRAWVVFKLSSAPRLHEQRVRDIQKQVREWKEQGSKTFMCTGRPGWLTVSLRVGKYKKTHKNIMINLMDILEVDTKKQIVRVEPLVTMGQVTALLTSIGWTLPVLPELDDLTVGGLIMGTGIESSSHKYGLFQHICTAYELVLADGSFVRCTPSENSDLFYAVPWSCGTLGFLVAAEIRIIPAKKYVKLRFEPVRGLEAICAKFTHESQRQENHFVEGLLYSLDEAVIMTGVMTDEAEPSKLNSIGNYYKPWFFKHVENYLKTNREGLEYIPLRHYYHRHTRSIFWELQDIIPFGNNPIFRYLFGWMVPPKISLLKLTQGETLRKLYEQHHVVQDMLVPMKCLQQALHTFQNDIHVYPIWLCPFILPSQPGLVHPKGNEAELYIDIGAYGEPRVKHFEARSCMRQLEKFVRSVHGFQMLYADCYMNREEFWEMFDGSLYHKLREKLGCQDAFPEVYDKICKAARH
Procedure: HepG2 cells were incubated for 12 h with 10 µM simvastatin (a kind gift from M. Stapff (MSD, Germany)) to deplete cholesterol precursors. Thereafter, the medium was changed to one containing 10 µM simvastatin, 10 µM miconazole (an inhibitor of 14α-demethylation) and 6 µg/dish lanosterol. After 12 h incubation, neutral sterols were extracted as described above, and the samples were monitored for lanosterol (m/z 498 (M^+) and m/z 393 (M-TMSOH-CH3)) and dihydrolanosterol (m/z 500 (M^+) and m/z 395 (M-TMSOH-CH3)) by GC/MS. Dihydrolanosterol was quantified by comparing the ratio of SIM abundances at m/z 395 and 370 (epicoprostanol) against a standard curve constructed from SIM results on mixtures of authentic dihydrolanosterol and epicoprostanol. Desmosterol was quantified analogously by SIM.

rat testis = assay: Levels of C29-sterols in rat testis slices, GC/MS (SIM); assay type: cell-based, Sprague-Dawley rats; details: 9 h, n=3, ± SD
Procedure: Unless specified otherwise, potent inhibitors, drugs, chemicals, and cell culture supplies were purchased from Sigma. T-MAS and FF-MAS were synthesized as reported recently (5) and used as reference compounds. 1-^13C-acetate was obtained from Cambridge Isotope Laboratories. Rat testes were obtained from Sprague-Dawley rats (weight <50g).
as §1, §2, §3

[3] = 12-h incubation with 10 µM, n=3 incubations
[4] = Conc. 1 µM (combinations 1 + 1 µM), 24 h, n=3
[5] = Conc. 10 µM (combinations 10 + 10 µM), 12 h, n=2
[6] = Conc. 10 µM (combination 10 + 10 µM)

| Structure (SMILES) | Increases in FF-MAS (HepG2 cells [1]) | Increases in T-MAS (HepG2 cells [1]) | Dienol (m/z 486) (HepG2 cells [1]; [4]) | Enol T-MAS (m/z 484) (HepG2 cells [1]; [4]) | Dienol (m/z 486) (HepG2 cells [1]; [5]) | Enol T-MAS (m/z 484) (HepG2 cells [1]; [5]) | Trienol FF-MAS (m/z 482) (HepG2 cells [1]; [5]) | suppression of the Δ24 reduction step (accumulation of desmosterol) (HepG2 cells [1]) | lowering of the total amount of lathosterol (HepG2 cells [2]) | reduction of de novo lathosterol synthesis (HepG2 cells [2]) | order of suppression of Δ24 reduction (Δ24-reductase) | Dienol (m/z 486) (rat testis; [6]) | Enol T-MAS (m/z 484) (rat testis; [6]) | Trienol FF-MAS (m/z 482) (rat testis; [6]) | Dienol (m/z 486) (rat testis; Conc. 20 µM) | Enol T-MAS (m/z 484) (rat testis; Conc. 20 µM) | Trienol FF-MAS (m/z 482) (rat testis; Conc. 20 µM) | other results |
| --- | --- | --- | --- | --- | --- | --- | --- | --- | --- | --- | --- | --- | --- | --- | --- | --- | --- | --- |
| CC(=O)[C@H]1CC[C@H]2[C@@H]3CCC4=CC(=O)CC[C@]4(C)[C@H]3CC[C@]12C [Progesterone] | 4 fold | 9 fold | 77 ± 9 % of control | 192 ± 41 % of control | 26 ± 3 % of control | 1000 ± 106 % of control | 3335 ± 397 % of control | strongly suppressed | ca. 50% | more than 60% | pregnenolone > progesterone > 17α-OH-pregnenolone >> 17α-OH-progesterone | 109 ± 1 % of control | 107 ± 1 % of control | 336 ± 12 % of control | 103 ± 14 % of control | 129 ± 10 % of control | 487 ± 37 % of control | desmosterol as share of the cholesterol content of the cells (HepG2 cells [1]; 12-h incubation with 10 µM): 2.1%; cholesterol (HepG2 cells [1]; [3]): 269 ± 3 µg; desmosterol (HepG2 cells [1]; [3]): 5.7 ± 0.07 µg |
| CC(=O)[C@@]1(O)CC[C@H]2[C@@H]3CCC4=CC(=O)CC[C@]4(C)[C@H]3CC[C@@]21C [17α-OH-Progesterone, 17α-Hydroxy-progesterone] | 4 fold | 9 fold | 246 ± 26 % of control | 162 ± 15 % of control | 2384 ± 236 % of control | 2003 ± 201 % of control | 406 ± 52 % of control | not | ca. 50% | more than 60% | pregnenolone > progesterone > 17α-OH-pregnenolone >> 17α-OH-progesterone | 199 ± 19 % of control | 201 ± 26 % of control | 171 ± 8 % of control | 223 ± 25 % of control | 225 ± 22 % of control | 240 ± 40 % of control | Trienol FF-MAS (m/z 482) (HepG2 cells [1]; [4]): 120 ± 14 % of control |
